Experimental data: ChEMBL document CHEMBL1121613

The compounds below were run against Adrenergic receptor alpha (Homo sapiens) (UniProt P35348+P08913+P18825+P25100+P35368+P18089) (assay: Blocking activity towards Alpha adrenergic receptor of rabbit aortic tissue preparation was determined). Conditions: Oryctolagus cuniculus; target entry is the homologue from another species.
With `c1ccc(CC2NC[C@@H](Cc3ccccc3)N2)cc1` (stereo partly drawn) the -Log KB was 4.98.
For `c1ccc(C[C@@H]2CN=C(Cc3cccc4ccccc34)N2)cc1`, the -Log KB was 6.34.
Compound `C[C@H]1CN=C(Cc2cccc3ccccc23)N1` has a -Log KB of 5.76.
In the case of `C[C@@H]1CN=C(Cc2cccc3ccccc23)N1`, the -Log KB is reported as 5.6.
`C[C@H]1CN=C(Nc2c(Cl)cccc2Cl)N1` gave a -Log KB of 5.27.
Work on `C[C@@H]1CN=C(Nc2c(Cl)cccc2Cl)N1` yielded a -Log KB of 5.08.
`c1ccc(CC2NC[C@H](Cc3ccccc3)N2)cc1` (stereo partly drawn) was tested, and the -Log KB was 5.
For `c1ccc(C[C@H]2CN=C(Cc3cccc4ccccc34)N2)cc1`, the -Log KB was 6.57.
